Test results published in ChEMBL document CHEMBL4270599, “Synthesis of a 3'-C-ethynyl-β-d-ribofuranose purine nucleoside library: Discovery of C7-deazapurine analogs as potent antiproliferative nucleosides” (Eur J Med Chem, 2018).

Assays:
Type in all cases: functional
SNB-75 = assay: Growth inhibition of human SNB75 cells assessed as cell growth at 10^-8 M incubated for 48 hrs by sulforhodamine B assay relative to control; conditions: SNB-75, 48 h, read-out: Activity
UO-31 = assay: Growth inhibition of human UO31 cells assessed as cell growth at 10^-6 M incubated for 48 hrs by sulforhodamine B assay relative to control; conditions: UO-31, 48 h, read-out: Activity
MDA-MB-435 = assay: Growth inhibition of human MDA-MB-435 cells assessed as cell growth at 10^-8 M incubated for 48 hrs by sulforhodamine B assay relative to control; conditions: MDA-MB-435, 48 h, read-out: Activity
HCT-116 = assay: Growth inhibition of human HCT116 cells assessed as cell growth at 10^-8 M incubated for 48 hrs by sulforhodamine B assay relative to control; conditions: HCT-116, 48 h, read-out: Activity
EKVX = assay: Growth inhibition of human EKVX cells assessed as cell growth at 10^-7 M incubated for 48 hrs by sulforhodamine B assay relative to control; conditions: read-out: Activity
RXF 393 = assay: Growth inhibition of human RXF393 cells assessed as cell growth at 10^-8 M incubated for 48 hrs by sulforhodamine B assay relative to control; conditions: RXF 393, 48 h, read-out: Activity
K562 [1] = assay: Growth inhibition of human K562 cells assessed as cell growth at 10^-5 M incubated for 48 hrs by sulforhodamine B assay relative to control; conditions: K562, 48 h, read-out: Activity
HCC 2998 = assay: Cytotoxicity against human HCC2998 cells after 48 hrs by SRB assay; conditions: HCC 2998, 48 h
ACHN [2] = assay: Growth inhibition of human ACHN cells assessed as cell growth at 10^-4 M incubated for 48 hrs by sulforhodamine B assay relative to control; conditions: read-out: Activity
RPMI-8226 = assay: Growth inhibition of human RPMI8226 cells assessed as cell growth at 10^-6 M incubated for 48 hrs by sulforhodamine B assay relative to control; conditions: RPMI-8226, 48 h, read-out: Activity
HCT-15 [3] = assay: Growth inhibition of human HCT15 cells assessed as cell growth at 10^-8 M incubated for 48 hrs by sulforhodamine B assay relative to control; conditions: HCT-15, 48 h, read-out: Activity
HOP-92 = assay: Growth inhibition of human HOP92 cells assessed as cell growth at 10^-6 M incubated for 48 hrs by sulforhodamine B assay relative to control; conditions: HOP-92, 48 h, read-out: Activity
ACHN [4] = assay: Cytotoxicity against human ACHN cells after 48 hrs by SRB assay
OVCAR-3 = assay: Cytotoxicity against human OVCAR3 cells after 48 hrs by SRB assay; conditions: OVCAR-3, 48 h
HOP-62 [5] = assay: Growth inhibition of human HOP62 cells assessed as cell growth at 10^-6 M incubated for 48 hrs by sulforhodamine B assay relative to control; conditions: HOP-62, 48 h, read-out: Activity
HCT-15 [6] = assay: Growth inhibition of human HCT15 cells assessed as cell growth at 10^-5 M incubated for 48 hrs by sulforhodamine B assay relative to control; conditions: HCT-15, 48 h, read-out: Activity
SK-OV-3 = assay: Cytotoxicity against human SKOV3 cells after 48 hrs by SRB assay; conditions: SK-OV-3, 48 h; for CC50: read-out: LC50 (the source's name)
HCT-15 [7] = assay: Growth inhibition of human HCT15 cells assessed as cell growth at 10^-6 M incubated for 48 hrs by sulforhodamine B assay relative to control; conditions: HCT-15, 48 h, read-out: Activity
DU-145 = assay: Growth inhibition of human DU145 cells assessed as cell growth at 10^-4 M incubated for 48 hrs by sulforhodamine B assay relative to control; conditions: DU-145, 48 h, read-out: Activity
NCI/ADR-RES = assay: Growth inhibition of human NCI/ADR-RES cells assessed as cell growth at 10^-8 M incubated for 48 hrs by sulforhodamine B assay relative to control; conditions: read-out: Activity
A549 = assay: Growth inhibition of human A549/ATCC cells assessed as cell growth at 10^-6 M incubated for 48 hrs by sulforhodamine B assay relative to control; conditions: A549, 48 h, read-out: Activity
U-251 [8] = assay: Growth inhibition of human U251 cells assessed as cell growth at 10^-6 M incubated for 48 hrs by sulforhodamine B assay relative to control; conditions: U-251, 48 h, read-out: Activity
OVCAR-4 [9] = assay: Growth inhibition of human OVCAR4 cells assessed as cell growth at 10^-4 M incubated for 48 hrs by sulforhodamine B assay relative to control; conditions: OVCAR-4, 48 h, read-out: Activity
Hs-578T = assay: Growth inhibition of human Hs 578T cells assessed as cell growth at 10^-5 M incubated for 48 hrs by sulforhodamine B assay relative to control; conditions: read-out: Activity
OVCAR-8 = assay: Growth inhibition of human OVCAR8 cells assessed as cell growth at 10^-6 M incubated for 48 hrs by sulforhodamine B assay relative to control; conditions: OVCAR-8, 48 h, read-out: Activity
SF-295 = assay: Growth inhibition of human SF295 cells assessed as cell growth at 10^-7 M incubated for 48 hrs by sulforhodamine B assay relative to control; conditions: SF-295, 48 h, read-out: Activity
K562 [10] = assay: Growth inhibition of human K562 cells assessed as cell growth at 10^-8 M incubated for 48 hrs by sulforhodamine B assay relative to control; conditions: K562, 48 h, read-out: Activity
NCI-H226 = assay: Growth inhibition of human NCI-H226 cells assessed as cell growth at 10^-7 M incubated for 48 hrs by sulforhodamine B assay relative to control; conditions: NCI-H226, 48 h, read-out: Activity
NCI-H460 = assay: Growth inhibition of human NCI-H460 cells assessed as cell growth at 10^-7 M incubated for 48 hrs by sulforhodamine B assay relative to control; conditions: NCI-H460, 48 h, read-out: Activity
OVCAR-4 [11] = assay: Growth inhibition of human OVCAR4 cells assessed as cell growth at 10^-8 M incubated for 48 hrs by sulforhodamine B assay relative to control; conditions: OVCAR-4, 48 h, read-out: Activity
CCRF-CEM = assay: Growth inhibition of human CCRF-CEM cells assessed as cell growth at 10^-4 M incubated for 48 hrs by sulforhodamine B assay relative to control; conditions: read-out: Activity
U-251 [12] = assay: Cytotoxicity against human U251 cells after 48 hrs by SRB assay; conditions: U-251, 48 h
HOP-62 [13] = assay: Growth inhibition of human HOP62 cells assessed as cell growth at 10^-8 M incubated for 48 hrs by sulforhodamine B assay relative to control; conditions: HOP-62, 48 h, read-out: Activity
[14] = read-out: pLC50 (the source's name) (converted)
[15] = read-out: LC50 (the source's name)

SMILES: C#C[C@@]1(O)[C@@H](CO)O[C@@H](n2cc(F)c3c(N)ncnc32)[C@@H]1O
- growth at 0.01 µM (SNB-75): 92%
- growth at 1 µM (UO-31): 23%
- growth at 0.01 µM (MDA-MB-435): 98%
- growth at 0.01 µM (HCT-116): 98%
- growth at 0.1 µM (EKVX): 86%
- growth at 0.01 µM (RXF 393): 94%
- growth at 10 µM (K562 [1]): 8%
- TGI (HCC 2998; read-out: TGI): 2820 nM
- GI50 (HCC 2998; read-out: pGI50 (converted)): 603 nM
- CC50 (HCC 2998; [14]): 15800 nM
- TGI (HCC 2998; read-out: pTGI (converted)): 2820 nM
- growth at 100 µM (ACHN [2]): 2%
- growth at 1 µM (RPMI-8226): 1%
- growth at 0.01 µM (HCT-15 [3]): 97%
- growth at 1 µM (HOP-92): 24%
- GI50 (ACHN [4]): 240 nM
- CC50 (ACHN [4]; [15]): > 100000 nM
- TGI (ACHN [4]; read-out: TGI): > 100000 nM
- TGI (ACHN [4]; read-out: pTGI (converted)): > 100000 nM
- CC50 (OVCAR-3; [15]): > 100000 nM
- TGI (OVCAR-3; read-out: TGI): > 100000 nM
- GI50 (OVCAR-3; read-out: pGI50 (converted)): 1120 nM
- TGI (OVCAR-3; read-out: pTGI (converted)): > 100000 nM
- growth at 1 µM (HOP-62 [5]): 33%
- growth at 10 µM (HCT-15 [6]): -18%
- CC50 (SK-OV-3): > 100000 nM
- TGI (SK-OV-3; read-out: TGI): 2090 nM
- GI50 (SK-OV-3; read-out: pGI50 (converted)): 288 nM
- TGI (SK-OV-3; read-out: pTGI (converted)): 2090 nM
- growth at 1 µM (HCT-15 [7]): 18%
- growth at 100 µM (DU-145): -4%
- growth at 0.01 µM (NCI/ADR-RES): 100%
- growth at 1 µM (A549): 19%
- growth at 1 µM (U-251 [8]): 38%
- growth at 100 µM (OVCAR-4 [9]): -25%
- growth at 10 µM (Hs-578T): 18%
- growth at 1 µM (OVCAR-8): 15%
- growth at 0.1 µM (SF-295): 94%
- growth at 0.01 µM (K562 [10]): 100%
- growth at 0.1 µM (NCI-H226): 95%
- growth at 0.1 µM (NCI-H460): 76%
- growth at 0.01 µM (OVCAR-4 [11]): 100%
- growth at 100 µM (CCRF-CEM): 1%
- GI50 (U-251 [12]; read-out: GI50): 631 nM
- TGI (U-251 [12]; read-out: TGI): 11600 nM
- GI50 (U-251 [12]; read-out: pGI50 (converted)): 631 nM
- CC50 (U-251 [12]; [14]): > 100000 nM
- TGI (U-251 [12]; read-out: pTGI (converted)): 11700 nM
- growth at 0.01 µM (HOP-62 [13]): 90%

SMILES: C#C[C@@]1(O)[C@@H](CO)O[C@@H](n2cc(Cl)c3c(N)ncnc32)[C@@H]1O
- growth at 0.01 µM (SNB-75): 84%
- growth at 0.01 µM (MDA-MB-435): 88 to 89%
- growth at 0.01 µM (HCT-116): 67 to 73%
- growth at 0.1 µM (EKVX): 78 to 79%
- growth at 0.01 µM (RXF 393): 101 to 108%
- growth at 10 µM (K562 [1]): 5 to 7%
- GI50 (HCC 2998; read-out: GI50): 182 to 191 nM
- CC50 (HCC 2998; [15]): > 100000 nM
- TGI (HCC 2998; read-out: TGI): 501 to 565 nM
- growth at 100 µM (ACHN [2]): 7%
- growth at 0.01 µM (HCT-15 [3]): 78 to 80%
- growth at 1 µM (HOP-92): 27 to 31%
- GI50 (ACHN [4]): 219 nM
- CC50 (ACHN [4]; [14]): > 100000 nM
- GI50 (OVCAR-3; read-out: GI50): 228 to 237 nM
- TGI (OVCAR-3; read-out: TGI): 1600 to 2010 nM
- CC50 (OVCAR-3; [14]): > 100000 nM
- growth at 1 µM (HOP-62 [5]): 2 to 10%
- growth at 10 µM (HCT-15 [6]): 1%
- GI50 (SK-OV-3; read-out: GI50): 119 to 171 nM
- CC50 (SK-OV-3): > 100000 nM
- TGI (SK-OV-3; read-out: TGI): 467 to 573 nM
- growth at 1 µM (HCT-15 [7]): 1%
- growth at 0.01 µM (NCI/ADR-RES): 77 to 82%
- growth at 0.1 µM (SF-295): 66 to 77%
- growth at 0.01 µM (K562 [10]): 93 to 97%
- growth at 0.1 µM (NCI-H226): 102 to 108%
- growth at 0.1 µM (NCI-H460): 13 to 27%
- growth at 0.01 µM (OVCAR-4 [11]): 89 to 90%
- growth at 100 µM (CCRF-CEM): 2 to 5%
- CC50 (U-251 [12]; [15]): > 100000 nM
- growth at 0.01 µM (HOP-62 [13]): 88 to 90%
